Like-named read-outs stand apart in the source and are kept apart here.
Experiments:
SW-480 [1] = assay: MTT study with OCT3 inhibitor, SW-480; type: cell-based, human; conditions: at the respective doses of inhibitor
HCT-116 [2] = assay: MTT study with OCT3 inhibitor, HCT-116; type: cell-based, human; conditions: at the respective doses of inhibitor
[3] = tested on: Human colon cancer cell line SW-480; assay: XTT assay, cytotoxicity on SW-480; type: cell-based; conditions: 24 h
Excerpt: (§1) Colon cancer cell lines and culture condition: Human colon cancer cell lines HCT-116 and SW-480 were purchased from NCCS, Pune. The carcinoma cell line (HCT-116) is wild-type for TP53 and adenocarcinoma cell line (SW480) is a double-mutant for TP53 gene.

HCT-116 [4] = assay: CFSE cell proliferation, HCT-116; type: cell-based, human; conditions: respective IC50 dose, 24 h
MCF-7 cells [5] = assay: CFSE cell proliferation assay (FACS); type: cell-based, human; conditions: IC50 dose, 24 h
Experimental: (§2) Cell proliferation and cycle study using FACS: To detect cell proliferation, CFSE dye was used. At first, MCF-7 cells were stained with 5 μM of CFSE dye for 15 min at 37° C. followed by the addition of FBS containing RPMI 1640 medium to end the reaction. Then CFSE-stained cells were cultured with both oxaliplatin and complex 1 for 24 h in 35-mm plates. One set of stained untreated cells was seeded only in complete media without any compound. For inhibition of proliferation, cells were grown in a serum-free medium (starvation) for 24 h as a positive control. On the next day, the green fluorescence intensity of CFSE within each cell was measured by flow cytometry, and data were calculated using Flowjo software (version 10). For cell cycle study, MCF-7 cells were seeded at 1×10^5 cells per well in a 6-well plate, treated with an IC50 dose of complex 1 and oxaliplatin for 24 h, then digested by trypsinization and made into cell suspension (10^6 cells were harvested from each group) in 2% FBS containing 1×PBS, followed by fixation in 70% ethanol overnight at 4° C. After that cells were centrifuged at 850×g in a low-temperature centrifuge for 5 min. […] BD FACS flow cytometer was used to assess the difference in cell cycle phase distribution of nuclear DNA, which was then analyzed using Flowjo software (version 10). […]

SW-480 [6] = assay: Cell cycle distribution (PI), SW-480; type: cell-based, human; conditions: 24 h
[7] = tested on: Human colon cancer cell line HCT-116; assay: XTT assay, cytotoxicity on HCT-116; type: cell-based; conditions: 24 h
Excerpt: as §1

HCT-116 [8] = assay: Annexin V-FITC/PI-PE dual staining, HCT-116; type: cell-based, human; conditions: respective IC50 dose, 24 h
HCT-116 cells = assay: TUNEL staining, fluorescence microscopy; type: cell-based, human; conditions: 24 h
SW-480 [9] = assay: Annexin V-FITC/PI-PE dual staining, SW-480; type: cell-based, human; conditions: respective IC50 dose, 24 h
HCT-116 [10] = assay: Cell cycle distribution (PI), HCT-116; type: cell-based, human; conditions: 24 h
SW-480 [11] = assay: CFSE cell proliferation, SW-480; type: cell-based, human; conditions: respective IC50 dose, 24 h
[12] = tested on: human breast cancer cell line MCF-7; assay: MTT assay, cytotoxicity on breast cancer cells
Experimental: Breast cancer cell line and culture condition: Cells were cultured in a humidified air-jacked CO2 incubator (Thermo scientific, Heracellvios 160i). […] Human breast cancer cells lines MCF-7, were purchased from NCCS, Pune. […] The cells were cultured as monolayers in RPMI-1640 supplemented with 10% heat-inactivated fetal bovine serum (FBS), 1% penicillin-streptomycin, and 1% antibiotic-antimycotics and 1% non-essential amino acids at 37° C. in a fully humidified air-jacketed incubator of 5% CO2 and 95% air. All the experiments were performed from exponentially growing passage of 15 or less with 80% cell confluency and then sub-cultured to a fresh media to keep cells healthy and actively growing.
The MTT assay is a quantitative, sensitive, and reliable colorimetric assay that mainly measures cell viability and proliferation. […] The cells viability was estimated spectrophotometrically by measuring absorbance at 570 nm using an ELISA plate reader. To calculate the cell viability percentage, the average absorbance of each treatment group was acquired and normalized based on the untreated control. The half inhibitory concentration (IC50 value) was calculated by putting the experimental data with the dose-response model (Prism 6, Version 6.0b, GraphPad Software).

MCF-7 cells [13] = assay: Cell cycle study by flow cytometry after PI staining; type: cell-based, human; conditions: IC50 concentration, 24 h; untreated 8.88%
Experimental: as §2

MCF-7 cells [14] = assay: FACS-based Annexin V-FITC/PI dual staining assay; type: cell-based, human; conditions: IC50 dose, 24 h
Experimental: FACS-based Annexin V-FITC/PI dual staining assay: MCF-7 cells were seeded in 6-well plate at 1×10^5 cells per well and treated with an IC50 dose of complex 1 and oxaliplatin for 24 h, after which they were harvested by trypsinization and processed into cell suspensions (10^6 cells were taken from each group). Cells were centrifuged at 800 g before being re-suspended in a dye mix that included 250 μL Annexin V-FITC binding buffer, 1 μL PI solution, and 3 μL Annexin V-FITC solution as per assay kit protocol. For 15 minutes, the cell suspension was kept in dark. The BD FACS Verse was used to detect the intensities of red and green fluorescence, and Flowjo software (version 10) was used to assess the apoptotic rates of treated cells. Ten thousand events were collected to determine the population percentage. All experiments were repeated three times, and the results were presented as mean±SD.

HCT-116 [15] = assay: Wound healing (scratch) assay, HCT-116; type: cell-based, human; conditions: IC50 dose, 12-48 h
SW-480 [16] = assay: Wound healing (scratch) assay, SW-480; type: cell-based, human; conditions: IC50 dose, 12-48 h

Compound	toxicity of the inhibitor itself, SW-480 (SW-480 [1])	toxicity of the inhibitor itself, HCT-116 (HCT-116 [2])	IC50 [3]	cell proliferation, HCT-116 (HCT-116 [4])	CFSE staining intensity vs untreated controls (MCF-7 cells [5])	cell cycle distribution, SW-480 (SW-480 [6])	IC50 [7]	number of apoptotic cells vs untreated, HCT-116 (HCT-116 [8])	TUNEL-positive cells vs untreated control (HCT-116 cells)	number of apoptotic cells vs untreated, SW-480 (SW-480 [9])	cell cycle distribution, HCT-116 (HCT-116 [10])	cell proliferation, SW-480 (SW-480 [11])	IC50 ([12]; read-out: IC50, cytotoxicity on MCF-7 cells, 24 h, mean±SD)	IC50 ([12]; read-out: IC50, cytotoxicity on MCF-7 cells, 48 h, mean±SD)	population of cells in the G2-M phase (MCF-7 cells [13])	late apoptotic (Annexin V+/PI+) population (MCF-7 cells [14]; untreated 2.87%)	early apoptotic population (Annexin V+/PI−) (MCF-7 cells [14]; untreated 4.96%)	migration of cells vs untreated, HCT-116 (HCT-116 [15])	migration of cells vs untreated, SW-480 (SW-480 [16])
CCN1/C(=C/c2ccc3ccccc3[n+]2CC)C=Cc2ccccc21.[I-] [Dycenium-22]	non-toxic	non-toxic	–	–	–	–	–	–	–	–	–	–	–	–	–	–	–	–	–
O=C1[O][Pt]2([NH][C@@H]3CCCC[C@H]3[NH]2)[O]C1=O [oxaliplatin, reference compound]	–	–	7.87 ± 1.54 µM	suppressed the cell proliferation	significantly higher	cell cycle arrest at G0-G1 phase	16.7 ± 1.78 µM	elevated the number of apoptotic cells	increased number of TUNEL-positive cells	elevated the number of apoptotic cells	cell cycle arrest at G0-G1 phase	suppressed the cell proliferation	31.4 ± 0.69 µM	15.1 ± 1.81 µM	21.3%	23.9%	9.58%	reduced the migration of cells	reduced the migration of cells

From patent US20250360099A2, “A significantly non-toxic novel Cobalt(III) Schiff base complex induces apoptosis via G2-M cell cycle arrest in human breast cancer cell line MCF-7 and cell cycle arrest of colon cancer cell lines HCT-116 and SW- 480 via G0-G1” (CHITTARANJAN NATIONAL CANCER INSTITUTE, priority 2023, published 2025)
